pIC50: −log10 of the molar value. Converted amounts (≈) assume the structure as drawn.
Experiments:
EGFR = biological target: T1, EGFR (Homo sapiens, UniProt P00533); experiment: Irreversibility test protocol: EGFR autophosphorylation inhibition in intact A431 cells (Western blot); assay type: cell-based; details: for irreversible inhibitory characteristic (irreversible binding to EGFR): A431 cells, EGF stimulation 8 hours after removal of the inhibitor vs immediately after
T1 construct: endogenous in cells; host or cells: A431 human epidermoid vulval carcinoma cells
Method: Irreversibility Test Protocol: The inhibitory potency of compounds 1a-c, as well as the irreversible nature of EGFR inhibition thereof were evaluated in intact A431 cells, according to published procedures (Smail et al., 1999). In brief, A431 human epidermoid vulval carcinoma were grown in six-well plates for 48 hours and further maintained in serum-free media for additional 18 hours. Duplicate sets of cells were incubated with increasing concentrations of the tested inhibitor for one hour. One set of the cells was thereafter stimulated with EGF, immediately after removal of the tested inhibitor. Another set of the cells was washed to remove the inhibitor, and EGF stimulation was carried out 8 hours after removal of the inhibitor from the medium. Cell lysates were prepared and loaded onto SDS-PAGE (8% acryl amide) for Western Blot analysis, and the extent of EGFR phosphorylation was evaluated by measuring the signal intensity of the corresponding phosphotyrosine band using a mix of anti-phosphotyrosine antibodies, PY20 (Santa Cruz Biotechnology Inc.) and 4G10 (produced from Su4G10 hybridoma cells). The degree of EGFR phosphorylation was measured for each set of cells and the IC50 values of Compounds 1a-c and 10b, vis-à-vis the level of EGFR's phosphotyrosine content were determined. A minimum of two different assays with similar results were considered. Each experiment was performed in duplicates.
The inhibitory potency of exemplary compounds according to the present embodiments, as well as the extent of their irreversible inhibition of the EGFR were first evaluated in intact A431 cells, using the protocol described hereinabove. The IC50 values were determined by the extent of EGFR phosphorylation at each inhibitor concentration either immediately after or 8 hours post removal of the tested inhibitor from the medium.

[1] = Water solubility determination (HPLC); assay type: physicochemical; details: aqueous buffer, thermodynamic from solid; MOPS buffer pH 7.4, room temperature
Method: DMSO (1 ml) and MOPS buffer pH 7.4 (1 ml) were separately added to test tubes containing the tested compound (Compounds 1a-c and 10b, ML04 or ML05), such that for each compound, two test tubes were prepared. The tubes were sonicated at room temperature for 20 minute, left intact for 10 minutes, and were then filtered through a 0.45 μm filter. Each of the DMSO solutions was diluted 10-folds with DMSO. A 50 μl sample of each solution was analyzed by HPLC (using C-18 analytical column, a mixture of 55% CH3CN:45% acetate buffer 0.1 M, pH 3.8, as a mobile phase at a flow rate of 1 ml/minute, and a UV detector operated at 254 nm). Measurements were performed in triplicate.

[2] = Partition coefficient determination (1-octanol/buffer, HPLC); assay type: physicochemical; details: 1-octanol / sodium phosphate buffer 0.1 M, pH 7.4; read-out: Log P (partition coefficient)
Method: Partition coefficient determination: Compounds 1a-c and 10b, ML04 and ML05 (3 mg) were dissolved in sodium phosphate buffer (0.1 M, pH 7.4, 5 ml) and 1-octanol (1 ml) and the resulting mixture was vortexed for 2 minutes, filtered, and maintained at room temperature for 10 minutes. The reaction mixture was then centrifuged at 4000 g for 10 minutes. Fifty (50) μl portions were taken from the organic (1-octanol) and from the aqueous (buffer) layers, and were dissolved in 0.45 ml acetonitrile. The samples were analyzed by HPLC system (C-18 analytical column, a mixture of 55% acetonitrile:45% acetate buffer 0.1 M, pH 3.8 as a mobile phase, flow rate of 1 ml/minute). The partition coefficients (Log P) were determined by the concentration ratio of the tested compound in the organic phase and the aqueous phase. Measurements were performed in triplicate.

T1 sequence (P00533 25-1210): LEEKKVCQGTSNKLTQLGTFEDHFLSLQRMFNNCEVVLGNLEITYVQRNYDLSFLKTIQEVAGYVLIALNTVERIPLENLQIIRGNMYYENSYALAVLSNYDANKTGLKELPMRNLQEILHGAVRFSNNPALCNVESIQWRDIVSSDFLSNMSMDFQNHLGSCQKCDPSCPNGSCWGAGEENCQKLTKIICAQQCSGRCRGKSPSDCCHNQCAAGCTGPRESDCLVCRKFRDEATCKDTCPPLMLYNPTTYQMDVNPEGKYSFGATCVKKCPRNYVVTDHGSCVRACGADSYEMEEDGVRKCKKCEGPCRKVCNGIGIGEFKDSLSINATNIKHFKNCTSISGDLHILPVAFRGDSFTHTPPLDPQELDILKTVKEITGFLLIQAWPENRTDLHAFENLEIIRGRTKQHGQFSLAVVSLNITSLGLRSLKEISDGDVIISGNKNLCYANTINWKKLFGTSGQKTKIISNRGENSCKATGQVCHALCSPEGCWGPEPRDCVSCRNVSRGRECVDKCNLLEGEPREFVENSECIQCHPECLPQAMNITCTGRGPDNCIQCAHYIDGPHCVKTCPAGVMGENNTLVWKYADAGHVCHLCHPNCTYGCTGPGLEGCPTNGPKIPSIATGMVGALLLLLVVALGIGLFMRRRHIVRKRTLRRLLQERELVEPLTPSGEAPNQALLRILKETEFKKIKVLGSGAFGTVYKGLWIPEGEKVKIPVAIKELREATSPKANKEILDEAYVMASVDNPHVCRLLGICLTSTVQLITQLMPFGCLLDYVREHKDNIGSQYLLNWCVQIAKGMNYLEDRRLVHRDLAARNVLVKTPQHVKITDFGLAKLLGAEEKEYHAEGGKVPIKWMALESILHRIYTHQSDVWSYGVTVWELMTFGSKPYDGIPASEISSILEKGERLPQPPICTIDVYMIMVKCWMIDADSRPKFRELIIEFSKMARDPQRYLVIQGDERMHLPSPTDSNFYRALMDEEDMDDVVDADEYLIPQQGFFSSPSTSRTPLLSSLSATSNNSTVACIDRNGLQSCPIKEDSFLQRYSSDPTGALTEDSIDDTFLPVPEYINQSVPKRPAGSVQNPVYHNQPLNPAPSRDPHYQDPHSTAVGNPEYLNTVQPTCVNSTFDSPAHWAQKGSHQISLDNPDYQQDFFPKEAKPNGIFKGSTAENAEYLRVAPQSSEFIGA

Row | Compound | melting point [°C] | irreversible inhibitory characteristic (irreversible binding to EGFR) (EGFR) | solubility at 20 min [1] [µg/mL] | pIC50 (EGFR; intact A431 cells, 1 hour incubation with inhibitor, EGF stimulation, read-out: IC50 vis-à-vis the level of EGFR's phosphotyrosine content) | logP [2]
1 | O=C(CCl)Nc1cc2c(Nc3cc(Cl)c(Cl)cc3F)ncnc2cc1OCCOCCOCCOCCF [Compound 1b, 2-Chloro-N-[4-(4,5-Dichloro-2-fluoro-phenylamino)-7-(2-{2-[2-(2-fluoro-ethoxy)-ethoxy]-ethoxy}-ethoxy)-quinazoline-6-yl]-acetamide] | 135 to 137 | irreversibly bind to the EGFR | – | – | –
2 | O=C(CCl)Nc1cc2c(Nc3cc(Cl)c(Cl)cc3F)ncnc2cc1OCCOCCF [Compound 1a, 2-Chloro-N-{4-(4,5-Dichloro-2-fluoro-phenylamino)-7-[2-(2-fluoro-ethoxy)-ethoxy]-quinazoline-6-yl}-acetamide] | 167 to 169 | irreversibly bind to the EGFR | – | – | –
3 | CN(C)CC=CC(=O)Nc1cc2c(Nc3cc(Cl)c(Cl)cc3F)ncnc2cc1OCCOCCOCCOCCF [Compound 10b, 4-dimethylamino-but-2-enoic acid {4-(4,5-Dichloro-2-fluoro-phenylamino)-7-(2-{2-[2-(2-fluoro-ethoxy)-ethoxy]-ethoxy}-ethoxy)-quinazoline-6-yl}-amide] | – | irreversible inhibitory characteristic | 3.5 (≈ 5.57 µM) | 8.30 | 3.7
4 | CN(C)CC=CC(=O)Nc1ccc2ncnc(Nc3cc(Cl)c(Cl)cc3F)c2c1 [ML04, 4-dimethylamino-but-2-enoic acid [4-(3,4-dichloro-6-fluoro-phenylamino)-quinazoline-6-yl]-amide, reference compound] | – | – | 0.14 (≈ 0.322 µM) | – | 3.9
5 | O=C(CCl)Nc1cc2c(Nc3cc(Cl)c(Cl)cc3F)ncnc2cc1OCCOCCOCCOCCOCCOCCF [Compound 1c, 2-Chloro-N-(4-(4,5-Dichloro-2-fluoro-phenylamino)-7-{2-[2-(2-{2-[2-(2-fluoro-ethoxy)-ethoxy]-ethoxy}-ethoxy)-ethoxy]-ethoxy}-quinazoline-6-yl)-acetamide] | – | irreversibly bind to the EGFR | – | – | –

Reference: patent US8461166B2, “Polyalkylene glycol derivatives of inhibitors of epidermal growth factor receptor tyrosine kinase” (Hadasit Medical Research Services and Development Ltd., priority 2005, dated 2013)
